Measured values reported in paper PMC11847541, “Liver fatty acid binding protein FABP1 transfers substrates to cytochrome P450 4A11 for catalysis” (The Journal of Biological Chemistry, 2025).
Several values for one entry are separate records, joined by “and”; a condition that tells them apart may be missing. Identical values can stand only once. Like-named read-outs stand apart in the source and are kept apart here. Values belong to the molecule of their own block, whether it stands above or below them.

How the values were obtained:
[1] = biological target: T1, FABP1 (Homo sapiens, UniProt P07148); assay: DAUDA displacement fluorescence titrations of DAUDA–FABP1 with fatty acids, fit in KinTek Explorer; type: binding
T1 construct: GST (N, cleaved yes); made in house; host or cells: Escherichia coli DH5α
T1 sequence (P07148 with tags, fused parts or gaps): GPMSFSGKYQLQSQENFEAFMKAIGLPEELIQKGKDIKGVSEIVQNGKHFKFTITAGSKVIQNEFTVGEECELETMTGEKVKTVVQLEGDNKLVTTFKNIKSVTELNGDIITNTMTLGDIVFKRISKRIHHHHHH
Description: The FABP–DAUDA system was used to screen saturated fatty acids (C12 to C18) for binding to FABP, and the Kd values were estimated in competition with the fluorophore (using its known Kd) with the kinetic modeling software KinTek Explorer. The general model is shown in Fig. 5A, where the substrate is competed against the fluorescent DAUDA–FABP1 complex for binding, yielding a ternary DAUDA–FABP1–substrate complex that is accompanied by an attenuation in fluorescence.
Figure 5 Fluorescence titrations of DAUDA–FABP1 with fatty acids (“forward” titrations).A, model of all binding equilibria accounted for in the DAUDA displacement assays. In the fluorescence assays (λex = 335 nm), DAUDA (D) binds to FABP1 (F) to form a fluorescent (indicated with yellow flash) complex (FD), with which a lipid (S) is then competed against for binding. The binding of S attenuates the fluorescence (denoted with a smaller yellow flash) and forms a ternary complex (FDS). High concentrations of S may completely displace D to form FSS, a spectroscopically silent complex. Using this method, fluorescence titrations were carried out with the fatty acids (B) laurate, (C) myristate, (D) palmitate, (E) 16-hydroxypalmitate, and (F) stearate. Fluorescence at the emission maximum (482 nm) was monitored (as in Fig. 4) and normalized to the starting fluorescence (i.e., the FD complex prior to the addition of S). Each data point corresponds to one independent replicate. DAUDA, 11-dansylaminoundecanoic acid; FABP1, fatty acid binding protein.
For the titrations with lipids, solutions of FABP1 (0.5 μM) and DAUDA (0.25 μM) were prepared such that the fluorescent species was not present in excess ([75]). A baseline was recorded with phosphate buffer, and a starting (basis) spectrum was recorded of the FABP–DAUDA complex (1 ml). The lipid solutions were gradually added to the cuvette with gentle mixing (pipetting up and down ∼7× with a pipette tip), and spectra were recorded (Fig. S12A). Control titrations were also performed the same day with solvent alone (Fig. S12B) as a normalizing factor for the lipid titrations as fluorescence attenuation was also observed to a much lesser degree as a solvent effect (Fig. S12C, D). […] The data were processed such that within the lipid titration and the solvent titration, the F482 values were normalized to the starting value (the initial FABP1–DAUDA complex with nothing added, set to 100%). The relative fluorescence of the lipid titration was then normalized to the relative fluorescence of the solvent titration to adjust for fluorescence attenuation observed in the solvent titration (presumably from altering the fluorophore environment). Thus, the data were processed according to y=(F482/F482(initial))lipid/(F482/F482(initial))solvent , and the resulting values were plotted as a function of lipid concentration (Fig. S12E). The curve was imported into KinTek Explorer ([76]) and was fit to a kinetic model (Fig. S13) to determine the Kd values (Table 1). Within the KinTek software, all fluorescent species required fluorescence scaling factors to convert signal to concentration. Scaling factors for the FABP–DAUDA complex, FABP–DAUDA–lipid complex, and DAUDA alone were 460, 92, and 8, respectively.
Figure S12. Data processing for FABP1 titration with palmitate. Fluorescence spectrum of increasing additions of (A) palmitate (0-2 µM, added in C2H5OH) and (B) C2H5OH to a mixture of DAUDA (0.25 µM) and FABP1 (0.5 µM), performed as described in the Experimental Methods (see “Titrations of FABP1 with lipids, DAUDA”). C, fluorescence values at 482 nm (F482) from the titrations presented in parts A and B are normalized to the starting values (DAUDA-FABP1 complex, no volume added). Data are reported as a function of volume of titrant added to the cuvette (black, C2H5OH alone; red, palmitate in C2H5OH). […]

[2] = biological target: T2, P450 4A11 (Homo sapiens, UniProt Q02928); assay: Equilibrium binding titrations of P450 4A11 with lipids (heme Soret spectral shift); details: for P450 heme Soret spectral shift induced: P450 4A11
T2 sequence (Q02928 5-519): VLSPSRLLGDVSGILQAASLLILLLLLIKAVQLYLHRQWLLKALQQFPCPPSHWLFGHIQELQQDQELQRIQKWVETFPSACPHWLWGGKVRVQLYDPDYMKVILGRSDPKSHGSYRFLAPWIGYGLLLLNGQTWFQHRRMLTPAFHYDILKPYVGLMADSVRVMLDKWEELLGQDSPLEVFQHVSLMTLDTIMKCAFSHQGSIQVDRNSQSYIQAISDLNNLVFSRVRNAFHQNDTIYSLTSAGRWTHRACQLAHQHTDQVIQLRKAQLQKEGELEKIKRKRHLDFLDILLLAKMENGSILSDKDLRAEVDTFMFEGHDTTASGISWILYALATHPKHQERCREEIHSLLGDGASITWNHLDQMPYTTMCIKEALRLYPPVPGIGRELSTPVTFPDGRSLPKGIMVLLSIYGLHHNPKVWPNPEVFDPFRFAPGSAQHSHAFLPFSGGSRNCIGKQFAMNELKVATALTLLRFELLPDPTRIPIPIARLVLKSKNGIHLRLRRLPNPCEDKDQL
Description: Affinity of palmitate and 16-OH palmitate for P450 4A11 (1 μM) was assessed by monitoring the blue shift (from ∼420 nm to ∼390 nm) of the P450 heme Soret band as a substrate binds and displaces the sixth axial heme ligand (H2O) to yield pentacoordinated heme (“type I” shift) ([26]).
P450 4A11 (1 μM) was titrated with (A) palmitate and (B) 16-OH palmitate in a 1.0 cm pathlength cell. Difference plots were calculated from absorbance maxima (∼390 nm) and minima (∼420 nm), and the data were fit to a hyperbolic equation. The insets in each panel are the difference spectra between a cuvette that received the lipid substrate and a cuvette that received solvent alone. Each data point corresponds to one independent replicate.
Equilibrium binding titrations with P450 4A11 (1 μM) were performed in buffer (100 mM potassium phosphate [pH 7.4]) as described previously ([44], [56]). Briefly, a baseline was first acquired on an OLIS-Cary 14 spectrophotometer set to scan from 350 to 500 nm in 1 cm glass cuvettes. […] The cuvettes were mixed with a plumper after additions, and spectra were recorded. The spectra were exported into Microsoft Excel software, and the absorbance values at 418 nm were subtracted from those at 390 nm and the values were plotted as a function of lipid concentration.
Titration of P450 4A11 with DAUDA. The P450 concentration was 1 µM and the DAUDA concentration was varied using a geometric series from 1 nM to 10 µM. […] The increase in absorbance in the UV region is due to the strong chromophore in the DAUDA dansyl moiety (Fig. S8).

[3] = lipid binding to DAUDA-bound FABP1 (DAUDA displacement), read-out: Kd, FD + S ↔ FDS
[4] = lipid binding to apo-FABP1, estimated via kinetic modeling, read-out: Kd, F + S ↔ FS
[5] = lipid binding to ternary complex FDS (full displacement of DAUDA), low-affinity site, read-out: Kd, FDS + S ↔ FSS + D

SMILES: O=C(O)CCCCCCCCCCCCCCCO [16-OH Palmitate (C16), 16-hydroxypalmitate]
koff, F + S ↔ FS ([1]; lipid (S) binding to apo-FABP1 (F), kinetic modeling, on-rate 9.0 × 10^7 M^−1 s^−1): 47 s⁻¹
Kd [1, 3]: 15000 nM
koff, FD + S ↔ FDS ([1]; lipid binding to DAUDA-bound FABP1 (FD), on-rate 2.3 × 10^7 M^−1 s^−1): 350 s⁻¹
Kd [1, 4]: 520 nM
koff, FDS + S ↔ FSS + D ([1]; lipid binding to ternary complex FDS (full displacement of DAUDA)): 1500 s⁻¹
Kd [1, 5]: 63000 nM
P450 heme Soret spectral shift induced [2]: reverse type I shift
Kd ([2]; read-out: Kd for P450 4A11, P450 4A11 1 μM, 100 mM potassium phosphate pH 7.4): 270 ± 40 nM

affinity difference between the two FABP1 binding sites [1]: > 250 fold
koff of palmitate from FABP1 relative to binding of palmitate (1–10 μM) to P450 4A11 ([1]; faster): 10–100 fold
remaining activity at 0.01 µM ([1]; lipid 0.01 µM, FABP1 0.5 µM, DAUDA 0.25 µM, F482 normalized, read-out: % Fluorescence): 91%
remaining activity at 0.025 µM ([1]; lipid 0.025 µM, FABP1 0.5 µM, DAUDA 0.25 µM, F482 normalized): 85.5%
remaining activity at 0.05 µM ([1]; lipid 0.05 µM, FABP1 0.5 µM, DAUDA 0.25 µM, F482 normalized): 84.5%
remaining activity at 0.075 µM ([1]; lipid 0.075 µM, FABP1 0.5 µM, DAUDA 0.25 µM, F482 normalized): 79.1%
remaining activity at 0.1 µM ([1]; lipid 0.1 µM, FABP1 0.5 µM, DAUDA 0.25 µM, F482 normalized, read-out: % Fluorescence): 74.5%
remaining activity at 0.15 µM ([1]; lipid 0.15 µM, FABP1 0.5 µM, DAUDA 0.25 µM, F482 normalized): 67.2%
remaining activity at 0.2 µM ([1]; lipid 0.2 µM, FABP1 0.5 µM, DAUDA 0.25 µM, F482 normalized): 60.3%
remaining activity at 0.25 µM ([1]; lipid 0.25 µM, FABP1 0.5 µM, DAUDA 0.25 µM, F482 normalized): 55.8%
remaining activity at 0.35 µM ([1]; lipid 0.35 µM, FABP1 0.5 µM, DAUDA 0.25 µM, F482 normalized): 42.4%
remaining activity at 0.45 µM ([1]; lipid 0.45 µM, FABP1 0.5 µM, DAUDA 0.25 µM, F482 normalized): 36.3%
remaining activity at 0.6 µM ([1]; lipid 0.6 µM, FABP1 0.5 µM, DAUDA 0.25 µM, F482 normalized, read-out: % Fluorescence): 30.3%
remaining activity at 0.9 µM ([1]; lipid 0.9 µM, FABP1 0.5 µM, DAUDA 0.25 µM, F482 normalized): 21.6%
remaining activity at 1.15 µM ([1]; lipid 1.15 µM, FABP1 0.5 µM, DAUDA 0.25 µM, F482 normalized): 20.5%
remaining activity at 1.4 µM ([1]; lipid 1.4 µM, FABP1 0.5 µM, DAUDA 0.25 µM, F482 normalized): 19.4%
remaining activity at 1.9 µM ([1]; lipid 1.9 µM, FABP1 0.5 µM, DAUDA 0.25 µM, F482 normalized): 20.4%
koff ([1]; lipid (S) binding to apo-FABP1 (F), kinetic modeling, on-rate 9.0 × 10^7 M^−1 s^−1, read-out: koff, F + S ↔ FS): 4.1 s⁻¹
Kd [1, 3]: 10 nM
koff ([1]; lipid binding to DAUDA-bound FABP1 (FD), on-rate 2.3 × 10^7 M^−1 s^−1, read-out: koff, FD + S ↔ FDS): 0.24 s⁻¹
Kd [1, 4]: 46 nM
Kd [1, 5]: 10000 nM
koff ([1]; lipid binding to ternary complex FDS (full displacement of DAUDA), read-out: koff, FDS + S ↔ FSS + D): 240 s⁻¹
tighter binding of palmitate to FABP1 than to P450 4A11 ([1]; ratio of Kd values): > 100 fold and 100 fold
Kd [2]: 5200 ± 1600 nM
P450 heme Soret spectral shift induced ([2]; listed as Palmitate): classical type I spectral shift
P450 heme Soret spectral shift induced ([2]; listed as palmitate): type I
SMILES: CCCCCCCCCCCCCCCC(=O)O [Palmitate (C16), palmitate]
